Counter-ions that a name gives are not always drawn. Like-named read-outs stand apart in the source and are kept apart here.
Experiments:
[1] = type: physicochemical; conditions: for Dissolution condition: 100 parts per 1 part API, 30 min, heating (60° C.), after cooling
Text: Dissolution condition and dissolution required for quantifying the API in a quantitive solvent were used as preliminary evaluation indexes, and a solvent capable of dissolving both active ingredients is preferred. Icon meaning: x: insoluble (this system is a white opaque suspension with visible white solid particles); ∘: incompletely soluble (this system is partially transparent, with white visible bulk solids or suspended solids); √ completely soluble (the system is a completely transparent solution, without suspended substances and solid insoluble substances); and /: not investigated.

[2] = Solubility and storage stability (crystallization) of tofacitinib in gels and liniments with and without minoxidil; type: physicochemical; conditions: in water and an organic solvent, gel kept stable
Procedure: (1) Different proportions of tofacitinib were set, a mixture of water and an organic solvent was used as a mixed solvent, and a single gel and a compound gel, and a single liniment and a compound liniment were prepared for comparatively investigating dissolved states of tofacitinib in the preparations with and without addition of minoxidil. The samples were stored at the room temperature for 1 month after the preparations were prepared, and stability of tofacitinib was evaluated by whether crystallization occurred or not during the storage.
(2) For an unstable preparation which is easy to precipitate tofacitinib crystals during the storage, adjustments were made by adding an organic solvent component, a surfactant, a crystallization inhibitor, or a thickening agent, increasing an amount of minoxidil, for comparatively investigating improvement of the stability of tofacitinib in the preparations with the above methods.
Solubility: (∘: incompletely soluble; √: completely soluble); and stability: (x: crystallization and precipitation; √: non-crystallization) […]

Which results are given for `C[C@@H]1CCN(C(=O)CC#N)C[C@@H]1N(C)c1ncnc2[nH]ccc12` [Tofacitinib citrate]?
Solubility in single solvents (in words) [1]: poor solubility; Dissolution condition ([1]; Example 16-b: Propylene glycol:water = 1:9 (w/w)): ✓; Dissolution condition ([1]; Example 16-c: Propylene glycol:water = 3:7 (w/w)): ✓; Dissolution condition ([1]; Example 16-d: Propylene glycol:water = 5:5 (w/w)): ✓; Dissolution condition ([1]; Example 16-e: Propylene glycol:water = 7:3 (w/w)): ✓; Dissolution condition ([1]; Example 16-f: Propylene glycol:water = 9:1 (w/w)): ✓; Dissolution condition ([1]; Example 17: Propylene glycol:water:ethanol = 5:2:3 (w/w)): ✓; Amount of tofacitinib (calculated by the prototype) dissolved by minoxidil [2]: 0.05-1.0 times the amount of minoxidil
